The values below come from patent US20090318502A1, “Pharmaceutical Compositions Comprising a Hypoglycemic Agent and Methods of Using Same” (INTRANASAL THERAPEUTICS, INC., priority 2006, published 2009).

A short description of data set [1]: Storage stability and appearance of intranasal repaglinide formulations. The conditions noted are these: solution pH. Type of data set: physicochemical. The procedure:
In one embodiment, a composition of the invention comprises at least 85%, at least 87%, at least 90%, at least 92%, at least 95%, at least 97%, or at least 99% of the original hypoglycemic agent (e.g., repaglinide) after storage (closed or open vessel) at 40° C. and 75% relative humidity for a period of at least 1 week, at least 2 weeks, at least 3 weeks, at least 4 weeks, at least 6 weeks, at least 8 weeks, at least 10 weeks, at least 15 weeks, at least 20 weeks, at least 25 weeks, at least 30 weeks, at least 35 weeks, at least 40 weeks, at least 45 weeks, or at least 50 weeks The formulations described in Table 1 below have shown good stability for a period of about one month. In particular, the formulations described in Example 1 below have shown no precipitation and have remained clear and colorless for a period of about one month.

Data set [2] in a line: Solubility of repaglinide in formulation vehicles. Type of data set: physicochemical. The conditions noted are these: in 100% methoxy-polyethylene glycol, 350.

Consider `CCOc1cc(CC(=O)N[C@@H](CC(C)C)c2ccccc2N2CCCCC2)ccc1C(=O)O` [repaglinide, Repaglinide], for which the “pH of solutions in which repaglinide was often more stable” value in data set [1] was “less than or equal to 9”. Moreover, in data set [2], the solubility of repaglinide entry is “poorly soluble or insoluble”.
